Measurements published in publication PMC5711939, “The rumen microbiome: an underexplored resource for novel antimicrobial discovery” (NPJ Biofilms and Microbiomes, 2017).
Where two headings read alike, the source gives them in different places. Ends that are not written are not given here.

Experiments:
C. jejuni = assay: microbe, parasite or virus in culture
Experimental: (§1) Peptides dissolved in sterile distilled water and comparator antibiotics dissolved in the appropriate solvents[38] were added to sterile U-bottom polypropylene 96-well microplates at desired concentrations.

Sal. typhimurium SL1344 = assay: microbe, parasite or virus in culture
Experimental: as §1

Ent. faecalis JH2-2 = assay: microbe, parasite or virus in culture
Experimental: as §1

[1] = system: List. monocytogenes NCTC 11994; assay: microbe, parasite or virus in culture; settings: NCTC 11994
Experimental: as §1

E. coli K12 [2] = assay: MIC, broth microdilution; assay type: cell-based, Escherichia coli; settings: strain K12; cation adjusted MHB, 18–24 h
Experimental: as §1

C. coli = system: C. coli
Experimental: as §1

E. coli K12 [3] = assay: Time kill kinetics; assay type: cell-based, Escherichia coli; settings: at 10 min
Experimental: Assessment of the bactericidal activity of peptides and comparator antibiotics was performed as previously described[39] using exponential-phase cultures of pathogens grown in MHB ([…]). Peptides were added at concentrations 3 times their MIC values. Experiments were performed in quadruplicates, and CFU/ml was calculated at different time points after over overnight incubation.

S. aureus = assay: microbe, parasite or virus in culture
Experimental: as §1

K. pneumoniae = assay: microbe, parasite or virus in culture
Experimental: as §1

P. aeruginosa H1001 = assay: SPOT peptide library screen (luminescence); assay type: cell-based, Pseudomonas aeruginosa; set-up: unit not given here; settings: 75% reduction of luminescence vs untreated controls; active IC75≤0.25, semi-active 0.25<IC75≤0.50, inactive IC75>0.5
Excerpt: (§2) The peptides in the created peptide library were synthesized based on the SPOT technique and pure peptides (≥95% purity) were synthesized on resin using solid phase Fmoc peptide chemistry.[16] The 135 peptides in the peptide library were screened for antimicrobial activity using both luminescent (Pseudomonas aeruginosa strain H1001)[34] and non-luminescent (epidemic methicillin resistant S. aureus EMRSA-15, Sal. typhimurium and E. coli K12) bacterial strains. Activity against non-luminescent bacteria strains was assessed by fluorescence readings (excitation/emission spectra of 560/590 nm) after the addition of resazurin dye (100 µm final concentration). The results from the screen were analysed using the MATLAB extension Gait-CAD as previously described.[35] Concentration values with a 75% reduction of luminescence or fluorescence (IC75) in relation to untreated controls were computed.

E. coli K12 [4] = assay: SPOT peptide library screen (resazurin fluorescence); assay type: cell-based, Escherichia coli; set-up: unit not given here; settings: 75% reduction of fluorescence vs untreated controls; active IC75≤0.25, semi-active 0.25<IC75≤0.50, inactive IC75>0.5
Excerpt: as §2

EMRSA-15 = assay: as above; assay type: cell-based, Staphylococcus aureus; set-up: unit not given here; settings: 75% reduction of fluorescence vs untreated controls; active IC75≤0.25, semi-active 0.25<IC75≤0.50, inactive IC75>0.5
Excerpt: as §2

Sal. typhimurium = assay: as above; assay type: cell-based, Salmonella enterica serovar Typhimurium; set-up: unit not given here; settings: 75% reduction of fluorescence vs untreated controls; active IC75≤0.25, semi-active 0.25<IC75≤0.50, inactive IC75>0.5
Excerpt: as §2

[5] = strain RN4220, Sensitive, cation adjusted MHB, 18–24 h

Row | Substance | MIC (C. jejuni) [µg/mL] | MIC (Sal. typhimurium SL1344) [µg/mL] | MIC (Ent. faecalis JH2-2) [µg/mL] | MIC [1] [µg/mL] | MIC (E. coli K12 [2]) [µg/mL] | MIC (C. coli) [µg/mL] | Bactericidal activity (reduction in viable count) (E. coli K12 [3]) [log10 CFU/ml] | MIC (S. aureus) [µg/mL] | MIC (S. aureus; [5]) [µg/mL] | MIC (K. pneumoniae) [µg/mL] | IC75 values indicating activity classes, P. aeruginosa H1001 (P. aeruginosa H1001) | IC75 values indicating activity classes, E. coli (E. coli K12 [4]) | IC75 values indicating activity classes, EMRSA-15 (EMRSA-15) | IC75 values indicating activity classes, Sal. typhimurium (Sal. typhimurium)
1 | KFVRLKIYCRDKNKGRGISF-NH2 [P15s] | 128 | 128 | 128 | 128 | 64 | 128 |  |  |  |  |  |  |  | 
2 | Polymyxin B |  |  |  |  |  |  | > 4 |  |  |  |  |  |  | 
3 | QVRWWGRYWRRKWATCR-NH2 [P12] | >128 | 256 | 256 | 128 |  | >128 |  |  |  |  |  |  |  | 
4 | RSITRPVLVRRRWRVRPVF-NH2 [P10] | >128 | 64 | 512 | 512 | 256 | >128 |  | >128 | 256 | >128 |  |  |  | 
5 | SIKILKIYFIQGKRHWSF-NH2 (C-terminus assumed) [P11] | >128 | 512 | 256 | 256 |  | >128 |  |  |  |  |  |  |  | 
6 | TMSLRFWRWKVR-NH2 [P5] | 128 | 64 | 64 | 64 | 64 | 128 |  |  | 64 |  |  |  |  | 
7 | TTAPCKCWIGLRRCFK [P18] |  |  |  |  |  |  |  |  |  |  | 1.55 | 0.36 | 3.77 | 1.99
8 | VLHTGYRKFLHRSKRFFHLR-NH2 [P4] | >128 | 32 | 64 | 64 | 64 | >128 |  |  |  |  |  |  |  | 
